Results reported in the NIST ThermoML archive (doi:10.1021/je030130y).

Experiment: xn = mol fraction of the nth substance listed
Settings: 101.3 kPa, Liquid; for viscosity: Capillary tube (Ostwald / Ubbelohde) method; for mass density: Pycnometric method

Clc1ccccc1 [chlorobenzene] + c1ccccc1
Settings	mass density, 298.15 K [kg/m3]	mass density, 303.15 K [kg/m3]	mass density, 308.15 K [kg/m3]	mass density, 313.15 K [kg/m3]	viscosity, 298.15 K [mPa·s]	viscosity, 303.15 K [mPa·s]	viscosity, 308.15 K [mPa·s]	viscosity, 313.15 K [mPa·s]
x2 = 0	1100.9	1095.8	1090.8	1085.1	0.756	0.714	0.673	0.635
x2 = 0.1206	1076.5	1071.4	1066.4	1060.7	0.744	0.699	0.656	0.618
x2 = 0.2642	1046.5	1041.4	1036.3	1030.7	0.727	0.682	0.639	0.601
x2 = 0.3982	1017.5	1012.4	1007.3	1001.7	0.711	0.667	0.623	0.585
x2 = 0.4644	1002.8	997.7	992.6	987	0.702	0.659	0.616	0.578
x2 = 0.5321	987.7	982.5	977.3	971.7	0.694	0.65	0.607	0.57
x2 = 0.6074	970.4	965.2	960	954.5	0.683	0.64	0.598	0.561
x2 = 0.7069	946.8	941.6	936.4	930.9	0.665	0.623	0.582	0.545
x2 = 0.8131	920.9	915.7	910.5	905	0.643	0.601	0.562	0.527
x2 = 0.9162	895	889.8	884.6	879.2	0.621	0.583	0.545	0.512

CN(C)C=O [dimethylformamide] + c1ccccc1
Settings	mass density, 298.15 K [kg/m3]	mass density, 303.15 K [kg/m3]	mass density, 308.15 K [kg/m3]	mass density, 313.15 K [kg/m3]	viscosity, 298.15 K [mPa·s]	viscosity, 303.15 K [mPa·s]	viscosity, 308.15 K [mPa·s]	viscosity, 313.15 K [mPa·s]
x1 = 0.1076	881.1	876	870.8	865.4	0.622	0.585	0.547	0.515
x1 = 0.2069	888.4	883.5	878.4	873.3	0.641	0.603	0.564	0.531
x1 = 0.3124	896.3	891.4	886.5	881.5	0.662	0.622	0.582	0.549
x1 = 0.4132	904.2	899.4	894.6	889.6	0.688	0.645	0.602	0.567
x1 = 0.5148	911.7	906.9	902.2	897.2	0.712	0.67	0.627	0.592
x1 = 0.6145	918.6	913.7	908.9	904	0.731	0.688	0.644	0.608
x1 = 0.7093	925	920.2	915.4	910.3	0.747	0.703	0.659	0.622
x1 = 0.8084	931.6	927	922.2	917.2	0.763	0.718	0.673	0.636
x1 = 0.8998	936.8	932.1	927.4	922.5	0.78	0.734	0.689	0.651
x1 = 1	944.5	939.8	935.1	930.2	0.803	0.756	0.71	0.673
